From paper PMC7468908 (Nutrients, 2020)
Read-outs that look alike come from different tables or passages of the source.

What was measured:
MRP2 = target: T1, MRP2 (Homo sapiens, UniProt Q92887); assay: MRP2 vesicular transport of CDCF in Sf9 membrane vesicles; assay type: biochemical
T1 construct: made in house; host or cells: Sf9 insect cells (baculovirus)
Description: (§1) Experiments were performed in insect membrane vesicles, as describe previously. Human BCRP and MRP2 were expressed in Sf9 insect cells by baculoviruses. At the third day of infection, cells were collected and membrane vesicles were obtained by mechanical disruption and differential centrifugation. To get full activity for BCRP, the cholesterol levels of the vesicles were adjusted to the level of mammalian membranes. Vesicles were stored at -80°C, total protein content of preparations was measured by the Lowry method (used as a reference of the quantity). Membrane vesicles (50 μg protein/sample) were incubated at 37 °C for 10 min (without or with 4 mM of Mg-ATP) in 50 μL volume, in the presence of transporter specific fluorescent substrates (10 μM lucifer yellow (LY) for BCRP and 5 μM 5(6)-Carboxy-2′,7′-dichlorofluorescein (CDCF) for MRP2). Quality of membrane vesicles was confirmed applying known reference inhibitors (benzbromarone and Ko143). ATP dependent uptake of fluorescent substrates was examined in the presence of flavonoids (up to 50–200 μM). Each compound was dissolved in DMSO and solvent controls were applied in all experiments. […] After incubation, samples were rapidly filtered and washed on filter plate (MSFBN6B10, Millipore, Burlington, MA, USA). Accumulated substrates in vesicles were solved back from the filter by 100 μL of 10% sodium dodecyl sulfate and centrifuged into another plate. A 100-μL volume of fluorescence stabilizer was added to the samples (DMSO for LY, and 0.1 M NaOH for CDCF). Fluorescence of samples was measured by a plate reader (Victor X3 Perkin-Elmer, Waltham, MA, USA) at appropriate wavelengths (filters were λex = 405 nm and λem = 535 nm for LY as well as λex = 492 nm and λem = 635 nm for CDCF). ABC related transport was calculated by subtracting passive uptake measured without Mg-ATP (with Mg-AMP the same background was detected) from values measured in the presence of Mg-ATP.

BCRP = target: T2, BCRP (Homo sapiens, UniProt Q9UNQ0); assay: BCRP vesicular transport of lucifer yellow in Sf9 membrane vesicles; assay type: biochemical; conditions: for concentration inducing statistically significant (p < 0.01) decrease in transport of LY by BCRP: 10 μM lucifer yellow; for IC50: vesicular uptake of 10 μM lucifer yellow
T2 construct: made in house; host or cells: Sf9 insect cells (baculovirus)
T2 sequence (Q9UNQ0 1-655): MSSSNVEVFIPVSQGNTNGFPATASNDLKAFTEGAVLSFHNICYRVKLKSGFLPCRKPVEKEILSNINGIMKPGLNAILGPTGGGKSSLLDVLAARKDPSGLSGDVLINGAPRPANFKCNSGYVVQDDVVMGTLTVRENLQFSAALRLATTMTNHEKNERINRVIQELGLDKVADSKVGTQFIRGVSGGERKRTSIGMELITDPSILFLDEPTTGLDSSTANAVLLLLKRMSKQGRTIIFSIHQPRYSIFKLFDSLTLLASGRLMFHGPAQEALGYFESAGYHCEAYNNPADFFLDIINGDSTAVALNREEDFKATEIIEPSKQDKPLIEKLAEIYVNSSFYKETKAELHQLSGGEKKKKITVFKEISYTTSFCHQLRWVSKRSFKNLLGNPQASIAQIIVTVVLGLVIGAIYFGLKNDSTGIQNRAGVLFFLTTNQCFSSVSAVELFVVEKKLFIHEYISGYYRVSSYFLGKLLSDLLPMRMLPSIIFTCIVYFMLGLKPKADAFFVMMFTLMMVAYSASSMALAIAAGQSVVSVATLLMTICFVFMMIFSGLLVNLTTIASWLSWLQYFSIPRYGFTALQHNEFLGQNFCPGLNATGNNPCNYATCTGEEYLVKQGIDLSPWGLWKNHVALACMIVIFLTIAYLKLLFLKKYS
Description: as §1, with “Quality of membrane vesicles was confirmed applying known reference inhibitors (benzbromarone and Ko143).” left out, “CDCF).” for “CDCF). ABC related transport was calculated by subtracting passive uptake measured without Mg-ATP (with Mg-AMP the same background was detected) from values measured in the presence of Mg-ATP.”

[1] = vesicular uptake of 5 μM CDCF, read-out: IC50 for MRP2

T1 sequence (Q92887 whole entry): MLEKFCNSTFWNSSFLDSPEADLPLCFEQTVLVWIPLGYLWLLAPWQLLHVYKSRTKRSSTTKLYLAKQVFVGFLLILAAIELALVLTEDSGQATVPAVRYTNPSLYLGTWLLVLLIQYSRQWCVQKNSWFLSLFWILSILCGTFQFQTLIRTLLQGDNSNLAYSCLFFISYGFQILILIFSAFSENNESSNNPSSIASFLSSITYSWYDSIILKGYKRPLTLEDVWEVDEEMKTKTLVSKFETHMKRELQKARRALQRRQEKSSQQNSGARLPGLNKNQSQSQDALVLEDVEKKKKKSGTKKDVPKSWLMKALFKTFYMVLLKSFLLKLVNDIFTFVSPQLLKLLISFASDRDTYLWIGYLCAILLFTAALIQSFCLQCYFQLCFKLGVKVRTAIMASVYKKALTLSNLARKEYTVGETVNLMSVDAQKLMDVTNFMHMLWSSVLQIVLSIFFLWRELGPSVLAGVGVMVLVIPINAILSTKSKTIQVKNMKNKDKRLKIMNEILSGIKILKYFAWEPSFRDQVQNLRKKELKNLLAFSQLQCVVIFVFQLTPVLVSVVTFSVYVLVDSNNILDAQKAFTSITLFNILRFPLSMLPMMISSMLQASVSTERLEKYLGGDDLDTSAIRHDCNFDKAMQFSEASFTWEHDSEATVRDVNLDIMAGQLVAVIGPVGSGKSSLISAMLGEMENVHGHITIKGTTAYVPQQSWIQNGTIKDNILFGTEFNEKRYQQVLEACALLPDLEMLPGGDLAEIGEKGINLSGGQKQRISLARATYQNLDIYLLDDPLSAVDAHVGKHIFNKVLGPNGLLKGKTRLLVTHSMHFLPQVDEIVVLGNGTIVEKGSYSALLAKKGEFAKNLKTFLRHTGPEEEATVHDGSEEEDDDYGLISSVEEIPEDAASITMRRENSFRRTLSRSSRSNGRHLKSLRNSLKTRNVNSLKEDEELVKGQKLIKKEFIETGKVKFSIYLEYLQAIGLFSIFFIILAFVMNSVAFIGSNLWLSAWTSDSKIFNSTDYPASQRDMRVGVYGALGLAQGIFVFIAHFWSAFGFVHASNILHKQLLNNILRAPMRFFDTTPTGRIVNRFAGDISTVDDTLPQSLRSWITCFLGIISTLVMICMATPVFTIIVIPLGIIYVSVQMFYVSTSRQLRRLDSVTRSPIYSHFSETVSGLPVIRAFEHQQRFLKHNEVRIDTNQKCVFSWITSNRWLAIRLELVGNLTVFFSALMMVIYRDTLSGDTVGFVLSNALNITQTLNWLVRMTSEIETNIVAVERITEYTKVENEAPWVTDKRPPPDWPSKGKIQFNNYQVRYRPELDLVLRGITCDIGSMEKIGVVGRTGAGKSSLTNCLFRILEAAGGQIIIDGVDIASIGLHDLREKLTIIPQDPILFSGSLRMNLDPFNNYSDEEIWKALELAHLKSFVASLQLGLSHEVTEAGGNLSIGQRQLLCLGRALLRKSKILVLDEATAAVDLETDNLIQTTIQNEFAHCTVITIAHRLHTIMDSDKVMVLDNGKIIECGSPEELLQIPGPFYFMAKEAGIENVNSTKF

| IC50 (MRP2; [1]) [µM] | concentration inducing statistically significant (p < 0.01) decrease in transport of LY by BCRP (BCRP) [nM] | IC50 (BCRP) [µM] | Compound | IC50 (MRP2) [µM] |
| --- | --- | --- | --- | --- |
| 19.6 | 200 | 3.2 | O=c1c(O)c(-c2ccc(O)c(OS(=O)(=O)O)c2)oc2cc(O)cc(O)c12 [Q3′S, quercetin-3′-sulfate] | – |
| 24.2 | 1000 | 13.5 | O=C(O)C1OC(Oc2c(-c3ccc(O)c(O)c3)oc3cc(O)cc(O)c3c2=O)C(O)C(O)C1O (centres unmarked) [Q3G, quercetin-3-glucuronide] | – |
| 14.9 | 20000 | > 30 | COc1cc(-c2oc3cc(O)cc(O)c3c(=O)c2OC2OC(C(=O)O)C(O)C(O)C2O)ccc1O (centres unmarked) [I3G, isorhamnetin-3-glucuronide] | – |

| Compound | IC50 (MRP2; [1]) [µM] | concentration inducing statistically significant (p < 0.01) decrease in transport of LY by BCRP (BCRP) [nM] | IC50 (BCRP) [µM] | IC50 (MRP2) [µM] |
| --- | --- | --- | --- | --- |
| O=c1c(O)c(-c2ccc(O)c(O)c2)oc2cc(O)cc(O)c12 [Q, quercetin] | > 30 | 50 | 0.13 | – |
| COc1cc(-c2oc3cc(O)cc(O)c3c(=O)c2O)ccc1O [IR, isorhamnetin] | – | 50 | – | > 30 |
